According to US20100297102A1, “SEROTONIN 5-HT3A RECEPTORS IN TREATMENT OF NEUROLOGICAL AND PSYCHIATRIC DISORDERS” (priority 2006, published 2010):
Each block holds one molecule with its values, some of them ahead of it.

What was measured:
5-HT3 receptor = molecular target: T1, 5-HT3 receptor (Mus musculus, UniProt P23979); assay: Whole-cell patch-clamp of 5-HT3 receptor-mediated inward current in EGFP-positive neurons/neuroblasts in acute slices; format: cell-based, mice
T1 sequence (P23979 24-489): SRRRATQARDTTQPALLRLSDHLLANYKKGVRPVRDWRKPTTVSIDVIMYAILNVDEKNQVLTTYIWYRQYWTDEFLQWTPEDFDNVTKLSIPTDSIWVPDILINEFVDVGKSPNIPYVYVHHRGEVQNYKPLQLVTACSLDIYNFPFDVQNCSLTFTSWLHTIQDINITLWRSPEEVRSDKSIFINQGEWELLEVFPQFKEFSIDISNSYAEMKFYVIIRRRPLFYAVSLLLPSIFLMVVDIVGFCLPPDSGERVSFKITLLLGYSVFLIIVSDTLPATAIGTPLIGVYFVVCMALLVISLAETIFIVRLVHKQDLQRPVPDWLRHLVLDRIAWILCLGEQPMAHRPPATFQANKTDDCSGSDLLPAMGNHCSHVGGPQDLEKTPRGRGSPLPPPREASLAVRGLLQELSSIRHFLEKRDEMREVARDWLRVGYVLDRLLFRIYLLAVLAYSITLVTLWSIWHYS
Description: We thus performed patch-clamp recordings from cells with the typical migratory morphology in the DMS using acute sagittal slices from transgenic animals (FIG. 3, A).
Slice preparation and electrophysiology. 250-350 μm-thick parasagittal brain sections (for recordings in hippocampus, cortex, RMS and DMS) or coronal brain sections (for recordings in amygdala) were made from transgenic mice (P8-P42) using a vibratome (Leica VT1000S). Whole-cell voltage and current clamp recordings were made from visually identified, EGFPpositive neurons using and EPC9 amplifier (HEKA) and an upright microscope (Zeiss Axioskop FS2) equipped with IR-DIC and standard epifluorescence. […] Slices were continuously superfused with ACSF containing (in mM): 120 NaCl, 3.5 KCl, 2.5 CaCl2, 1.3 MgSO4, 1.25 NaH2PO4, 25 NaHCO3, 25 glucose. The presence of functional 5-HT3 receptors was assessed by application of 100 μM 5-HT (dissolved in ACSF) via pressure 12 ejection from a second pipette connected to a picospritzer. Cells were voltage clamped at −60 mV. Signals were filtered at 1-5 kHz, sampled at 2-10 kHz and off-line analysis was performed using Igor Pro (Wavemetrics).

transgenic mice = assay: Toxicity of BrdU injections in birthdating experiments; format: in vivo
Procedure: Birthdating analysis. Pregnant mice and P7 transgenic mice were injected intraperitoneally with 50 mg/kg or 300 mg/kg BrdU (Sigma) (body weight), sacrificed after 1 or 4 weeks and processed for immunostaining.
Five BrdU injections (50 mg/kg, intraperitoneally) were administered every 2 hrs apart for 8 hours at E12.5, E14.5, E16.5 and P7 (FIG. 10). […] To avoid a cumulative effect, 5 pulses of BrdU (one pulse per day) were administered from P7 to P12. At P7 two treatments, one with 50 mg/kg and with 300 mg/kg of BrdU were carried.

[1] = after intraperitoneal injection; cited from earlier work
EGFP-positive cells = assay: Organotypic slice culture: migration/distribution of EGFP-positive neuroblasts; format: cell-based, mice
Procedure: The presence of functional 5-HT3 receptors on neuroblasts raised the question whether the receptor activation plays a role in the migration and maturation of GABAergic inhibitory neurons in postnatal life. To this end, studies were carried out in organotypic slices obtained from P3 transgenic mice (n=8) and cultured in vitro for 6 days. There were clear alterations in the cortical distribution of EGFP-positive cells in slices treated with the specific 5-HT3 antagonist tropisetron (1 μM) compared to corresponding untreated slices (FIGS. 4, A and B). The decrease in the number of EGFP-expressing cells in tropisetron-treated animals in cortex and hippocampus indicates a deficit in the migration of these cells, rather than cell death since the neuroblasts are still clearly visible in the stream. […] By P3 when slices were made, many EGFP-expressing cells have already reached their destination.
Organotypic slice culture experiments. Organotypic slice cultures were performed as previously described. After 6 days in culture, slices, control or treated with tropisetron (Sigma), were fixed for 1 hr in 4% PFA and processed for immunostaining using polyclonal rabbit anti-EGFP antibody. Cell counts were performed in pairs of matching tropisetron-treated and untreated slices. EGFP-positive cells were counted in deep, in superficial cortical layers and in stratum radiatum of the hippocampus within three standardized rectangular regions of 200×150 μm2 for each region. Data from control and treated slices were analyzed by Student's t test.

[2] = tropisetron 1 μM, slices from P3 transgenic mice, 6 days in culture, n=8

5-HT3 receptor-mediated inward current, average amplitude (5-HT3 receptor; application of 5-HT (100 μM), mature/spiking neuroblasts in the DMS, 18 out of 22 responded): −46.0±10.5 pA
SMILES: NCCc1c[nH]c2ccc(O)cc12 [5-HT, 5-hydroxytryptamine]

SMILES: O=c1[nH]c(=O)n([C@H]2C[C@H](O)[C@@H](CO)O2)cc1Br [BrdU]
toxic effects (transgenic mice; P16 mice after BrdU treatment, 50 mg/kg and 300 mg/kg i.p., dose-dependent): Hair loss and motor deficits | EGFP-positive cell number in the granule cell layer and periglomerular cell layer of the OB (transgenic mice; at P16, injected at P7 with 50 mg/kg BrdU, compared to untreated transgenic control mice (FIG. 10F)): Reduction | EGFP-positive cell number in the granule cell layer and periglomerular cell layer of the OB (transgenic mice; at P16, injected at P7 with 300 mg/kg BrdU, compared to untreated transgenic control mice (FIG. 10G)): Reduction | number of EGFP-positive cells in the cortex, the RMS and OB (transgenic mice; at P16 after postnatal treatment with BrdU): reduction | persistence in the circulation [1]: less than a few hours

SMILES: CN1[C@@H]2CC[C@H]1C[C@@H](OC(=O)c1c[nH]c3ccccc13)C2 [tropisetron]
cell density in the DMS (EGFP-positive cells; slices from P3 transgenic mice treated with tropisetron, compared to control (FIG. 4)): increase in cell density in the DMS | number of EGFP positive cells in hippocampus, of control levels (EGFP-positive cells; tropisetron 100 nM, n=3): 74.7% | number of EGFP positive cells in superficial cortical layers, of control levels (EGFP-positive cells; tropisetron 100 nM, n=3): 81.1% | number of EGFP positive cells in the deep cortex, of control levels (EGFP-positive cells; tropisetron 100 nM, n=3): 70.8% | number of EGFP positive cells in deep cortical layers, of the control level (EGFP-positive cells; [2]): 68.4% | number of EGFP positive cells in stratum radiatum of the hippocampus, of the control level (EGFP-positive cells; [2]): 72.6% | number of EGFP positive cells in superficial layers, of the control level (EGFP-positive cells; [2]): 76.4%

SMILES: CN1[C@@H]2CC[C@H]1C[C@@H](OC(=O)c1cc(Cl)cc(Cl)c1)C2 [MDL72222]
block of 5-HT3 receptor-mediated inward current evoked by 100 μM 5-HT (5-HT3 receptor; whole-cell voltage clamped EGFP-positive neurons, n=5 (FIG. 1B)): can be blocked
